In paper PMC10333285, “Structural basis of ligand activation and inhibition in a mammalian TRPV4 ion channel” (Cell Discovery, 2023):

Columns and labels:
TRPV4 (mTRPV4) [1] = target: TRPV4 (mTRPV4) (Mus musculus, UniProt Q9EPK8, D682A); assay: patch-clamp inhibition of GSK101-activated mutant channel; format: cell-based
TRPV4 (mTRPV4) [2] = target: TRPV4 (mTRPV4) (Mus musculus, UniProt Q9EPK8); assay: cryo-EM structure with GSK101 also bound ([…] Å); patch-clamp inhibition IC50; format: cell-based
Chain of TRPV4 (mTRPV4) (Mus musculus, UniProt Q9EPK8) (Q9EPK8 whole entry): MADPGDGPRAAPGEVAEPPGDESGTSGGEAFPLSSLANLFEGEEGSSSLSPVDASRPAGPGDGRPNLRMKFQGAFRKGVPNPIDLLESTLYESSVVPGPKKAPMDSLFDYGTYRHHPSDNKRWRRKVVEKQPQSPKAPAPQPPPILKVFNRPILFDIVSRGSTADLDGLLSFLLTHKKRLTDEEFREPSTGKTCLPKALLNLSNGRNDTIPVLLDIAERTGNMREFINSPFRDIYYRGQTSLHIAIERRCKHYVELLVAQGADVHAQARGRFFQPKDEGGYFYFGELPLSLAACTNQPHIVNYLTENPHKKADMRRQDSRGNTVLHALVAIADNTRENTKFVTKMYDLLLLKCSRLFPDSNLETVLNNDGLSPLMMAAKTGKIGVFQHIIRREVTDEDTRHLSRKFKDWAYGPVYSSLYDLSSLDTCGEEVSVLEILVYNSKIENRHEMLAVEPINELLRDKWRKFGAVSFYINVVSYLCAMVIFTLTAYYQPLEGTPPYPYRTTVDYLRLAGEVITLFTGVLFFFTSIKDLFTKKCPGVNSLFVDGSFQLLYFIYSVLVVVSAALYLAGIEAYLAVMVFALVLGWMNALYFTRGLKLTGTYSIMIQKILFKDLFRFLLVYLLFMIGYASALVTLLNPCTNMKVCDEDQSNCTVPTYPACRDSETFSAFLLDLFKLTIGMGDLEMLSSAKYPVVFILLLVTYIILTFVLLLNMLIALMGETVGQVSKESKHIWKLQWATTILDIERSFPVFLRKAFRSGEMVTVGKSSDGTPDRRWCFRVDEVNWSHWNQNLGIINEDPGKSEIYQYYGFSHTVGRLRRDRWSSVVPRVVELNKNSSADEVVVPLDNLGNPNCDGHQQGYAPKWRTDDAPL

Chain of TRPV4 (mTRPV4) (Mus musculus, UniProt Q9EPK8, D682A) (Q9EPK8 whole entry D682A): as the sequence (Q9EPK8 whole entry) above, with D682A counted along it

## Cl.Cl.Cl.Cl.Cl.Cl.N.N.N.N.N.N.N.N.N.N.N.N.N.N.[O-2].[O-2].[Ru+3].[Ru+3].[Ru+4] [ruthenium red]
TRPV4 (mTRPV4) [1]
  IC50: 15.6 ± 3.2 µM
TRPV4 (mTRPV4) [2]
  IC50: 0.3 ± 0.1 µM
